Columns and labels:
[1] = molecular target: T1, DusA (Escherichia coli, UniProt P32695); experiment: flavin bound to the purified protein; format: binding; details: non-covalent; flavin named FMN elsewhere in the paper
T1 construct: expression construct, tags and host not described
T1 sequence (P32695 1-345): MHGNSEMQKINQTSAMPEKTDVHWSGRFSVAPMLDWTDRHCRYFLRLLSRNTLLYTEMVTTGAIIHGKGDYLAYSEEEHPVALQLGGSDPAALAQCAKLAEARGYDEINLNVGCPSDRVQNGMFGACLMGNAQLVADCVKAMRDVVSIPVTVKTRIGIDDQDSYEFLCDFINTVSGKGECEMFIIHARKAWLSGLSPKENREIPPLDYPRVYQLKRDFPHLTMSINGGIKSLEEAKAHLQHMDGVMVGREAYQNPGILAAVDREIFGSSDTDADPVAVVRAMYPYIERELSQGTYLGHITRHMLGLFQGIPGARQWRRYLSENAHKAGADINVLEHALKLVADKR

[2] = molecular target: T2, DusB (Escherichia coli, UniProt P0ABT5); experiment: flavin bound to the purified protein; format: binding; details: non-covalent; flavin named FMN elsewhere in the paper
T2 construct: expression construct, tags and host not described
T2 sequence (P0ABT5 1-321): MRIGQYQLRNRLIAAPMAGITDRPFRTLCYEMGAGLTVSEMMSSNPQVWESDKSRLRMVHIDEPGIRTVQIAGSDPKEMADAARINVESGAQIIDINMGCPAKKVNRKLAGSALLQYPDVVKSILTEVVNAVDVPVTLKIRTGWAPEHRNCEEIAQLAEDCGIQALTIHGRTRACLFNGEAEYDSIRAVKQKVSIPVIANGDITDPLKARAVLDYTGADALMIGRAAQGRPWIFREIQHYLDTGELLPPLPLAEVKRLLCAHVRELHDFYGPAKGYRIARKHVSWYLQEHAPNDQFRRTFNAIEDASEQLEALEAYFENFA

[3] = molecular target: T3, DusC (Escherichia coli, UniProt P33371); experiment: flavin bound to the purified protein; format: binding; details: non-covalent; flavin named FMN elsewhere in the paper
T3 construct: expression construct, tags and host not described
T3 sequence (P33371 1-315): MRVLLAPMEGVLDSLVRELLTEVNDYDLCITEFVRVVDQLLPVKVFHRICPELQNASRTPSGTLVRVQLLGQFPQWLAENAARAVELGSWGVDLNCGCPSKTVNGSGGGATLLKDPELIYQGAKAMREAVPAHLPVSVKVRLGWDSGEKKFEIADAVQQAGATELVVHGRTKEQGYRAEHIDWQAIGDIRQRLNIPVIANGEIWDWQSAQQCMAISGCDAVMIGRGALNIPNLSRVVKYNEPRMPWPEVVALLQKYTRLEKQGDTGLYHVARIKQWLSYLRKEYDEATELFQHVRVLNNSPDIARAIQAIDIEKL

[4] = substrate: NC(=O)C1=CN([C@@H]2O[C@H](COP(=O)(O)OP(=O)(O)OC[C@H]3O[C@@H](n4cnc5c(N)ncnc54)[C@H](OP(=O)(O)O)[C@@H]3O)[C@@H](O)[C@H]2O)C=CC1; experiment: NADPH oxidase, spectrophotometric, steady state; format: biochemical, Escherichia coli; details: air (O2) as final electron acceptor, 50 mM HEPES pH 7.5, 150 mM NaCl, 15% glycerol, no tRNA

Molecule: Cc1cc2nc3c(=O)[nH]c(=O)nc-3n(C[C@H](O)[C@H](O)[C@H](O)COP(=O)(O)O)c2cc1C [FMN]
- flavin bound to the purified protein [1]: exhibited non-covalently bound flavin, associated with the apoproteins
- flavin bound to the purified protein [2]: exhibited non-covalently bound flavin, associated with the apoproteins
- flavin bound to the purified protein [3]: exhibited non-covalently bound flavin, associated with the apoproteins

B1: DusA (Escherichia coli K-12) (protein)
chain: T1 sequence (P32695 1-345)
notes: expression construct, tags and host not described
- Km [4]: 17 ± 3 µM
- kcat [4]: 0.48 ± 0.072 s⁻¹
